From ChEMBL document CHEMBL4665624, “Synthesis of 5-(4-(1H-phenanthro[9,10-d]imidazol-2-yl)benzylidene)thiazolidine-2,4-dione as promising DNA and serum albumin-binding agents and evaluation of antitumor activity” (Eur J Med Chem, 2019)
Active and inactive are the calls of the source. The calls are words filed in the database; no cut-off is given here.

What was measured:
HL-60(TB) = experiment: Antitumor activity against human HL-60(TB) cells assessed as cell growth inhibition at 10 uM incubated for 48 hrs by sulforhodamine B assay; assay type: functional; conditions: read-out: GI
K562 = experiment: Antitumor activity against human K562 cells assessed as cell growth inhibition at 10 uM incubated for 48 hrs by sulforhodamine B assay; assay type: functional; conditions: read-out: GI
EKVX = experiment: Antitumor activity against human EKVX cells assessed as cell growth inhibition at 10 uM incubated for 48 hrs by sulforhodamine B assay; assay type: functional; conditions: read-out: GI
COLO 205 = experiment: Antitumor activity against human COLO205 cells assessed as cell growth inhibition at 10 uM incubated for 48 hrs by sulforhodamine B assay; assay type: functional; conditions: read-out: GI
HT-29 = experiment: Antitumor activity against human HT-29 cells assessed as cell growth inhibition at 10 uM incubated for 48 hrs by sulforhodamine B assay; assay type: functional; conditions: read-out: GI
KM12 = experiment: Antitumor activity against human KM12 cells assessed as cell growth inhibition at 10 uM incubated for 48 hrs by sulforhodamine B assay; assay type: functional; conditions: read-out: GI
SF-268 = experiment: Antitumor activity against human SF268 cells assessed as cell growth inhibition at 10 uM incubated for 48 hrs by sulforhodamine B assay; assay type: functional; conditions: read-out: GI
U-251 = experiment: Antitumor activity against human U251 cells assessed as cell growth inhibition at 10 uM incubated for 48 hrs by sulforhodamine B assay; assay type: functional; conditions: read-out: GI
M14 = experiment: Antitumor activity against human M14 cells assessed as cell growth inhibition at 10 uM incubated for 48 hrs by sulforhodamine B assay; assay type: functional; conditions: read-out: GI
MDA-MB-435 = experiment: Antitumor activity against human MDA-MB-435 cells assessed as cell growth inhibition at 10 uM incubated for 48 hrs by sulforhodamine B assay; assay type: functional; conditions: read-out: GI
OVCAR-3 = experiment: Antitumor activity against human OVCAR-3 cells assessed as cell growth inhibition at 10 uM incubated for 48 hrs by sulforhodamine B assay; assay type: functional; conditions: read-out: GI
OVCAR-4 = experiment: Antitumor activity against human OVCAR-4 cells assessed as cell growth inhibition at 10 uM incubated for 48 hrs by sulforhodamine B assay; assay type: functional; conditions: read-out: GI
786-0 = experiment: Antitumor activity against human 786-0 cells assessed as cell growth inhibition at 10 uM incubated for 48 hrs by sulforhodamine B assay; assay type: functional; conditions: read-out: GI
ACHN = experiment: Antitumor activity against human ACHN cells assessed as cell growth inhibition at 10 uM incubated for 48 hrs by sulforhodamine B assay; assay type: functional; conditions: read-out: GI
MDA-MB-231 = experiment: Antitumor activity against human MDA-MB-231/ATCC cells assessed as cell growth inhibition at 10 uM incubated for 48 hrs by sulforhodamine B assay; assay type: functional; conditions: read-out: GI
BT-549 = experiment: Antitumor activity against human BT-549 cells assessed as cell growth inhibition at 10 uM incubated for 48 hrs by sulforhodamine B assay; assay type: functional; conditions: read-out: GI
MDA-MB-468 = experiment: Antitumor activity against human MDA-MB-468 cells assessed as cell growth inhibition at 10 uM incubated for 48 hrs by sulforhodamine B assay; assay type: functional; conditions: read-out: GI
A549 [1] = experiment: Cytotoxicity against human A549/ATCC assessed as reduction in cell viability at 1 uM after 48 hrs by MTT assay; assay type: functional
A549 [2] = experiment: Cytotoxicity against human A549/ATCC assessed as reduction in cell viability at 0.01 uM after 48 hrs by MTT assay; assay type: functional
HEK293 = experiment: Cytotoxicity against human HEK293 assessed as reduction in cell viability at 10 uM after 48 hrs by MTT assay; assay type: cell-based; conditions: hek293, 48 h
Calf thymus DNA [3] = experiment: Binding affinity to calf thymus DNA assessed as DNA intercalation by measuring increase in melting temperature of DNA at 10 uM by thermal denaturation based spectrophotometric analysis; assay type: nucleic-acid assay; conditions: Bos taurus
Calf thymus DNA [4] = experiment: Binding affinity to calf thymus DNA assessed as Stern-Volmer quenching constant by ethidium bromide competitive displacement assay; assay type: nucleic-acid assay; conditions: Bos taurus
Calf thymus DNA [5] = experiment: Binding affinity to calf thymus DNA assessed as bimolecular quenching constant by ethidium bromide competitive displacement assay; assay type: nucleic-acid assay; conditions: Bos taurus
Calf thymus DNA [6] = experiment: Binding affinity to calf thymus DNA (unknown origin) assessed as binding constant by ethidium bromide competitive displacement assay; assay type: nucleic-acid assay; conditions: Bos taurus
Calf thymus DNA [7] = experiment: Binding affinity to calf thymus DNA assessed as DNA intercalation by measuring decrease in intensity of CD band at 250 nm at 1 uM by CD spectroscopy; assay type: nucleic-acid assay; conditions: Bos taurus
Calf thymus DNA [8] = experiment: Binding affinity to calf thymus DNA assessed as DNA intercalation by measuring increase in intensity of CD band at 281 nm at 1 uM by CD spectroscopy; assay type: nucleic-acid assay; conditions: Bos taurus
DNA = experiment: Binding affinity to human DNA in blood assessed as DNA intercalation by measuring hypochromic shift at 398 nm at 20 uM by UV-Vis spectral titration analysis; assay type: tissue-based
Albumin [9] = biological target: T1, Albumin (Bos taurus, UniProt P02769); experiment: Binding affinity to bovine serum albumin assessed as increase in absorption intensity at 280 nm at 0-10 uM by UV-vis absorption spectral titration analysis; assay type: ADME, cell-free; conditions: cattle
Albumin [10] = biological target: T1, Albumin; experiment: Binding affinity to bovine serum albumin assessed as formation of new absorption band at 400 nm at 0-10 uM by UV-vis absorption spectral titration analysis; assay type: ADME, cell-free; conditions: cattle
Albumin [11] = biological target: T1, Albumin; experiment: Binding affinity to bovine serum albumin assessed as decrease in fluorescence emission intensity at 350 nm at 0-12 uM by fluorescence emission spectrum analysis; assay type: ADME, cell-free; conditions: cattle, 0.35 µM
Albumin [12] = biological target: T1, Albumin; experiment: Binding affinity to bovine serum albumin assessed as Stern-Volmer quenching constant at 298K by fluorescence emission spectrum analysis; assay type: ADME, cell-free; conditions: cattle
Albumin [13] = biological target: T1, Albumin; experiment: Binding affinity to bovine serum albumin assessed as Stern-Volmer quenching constant at 308K by fluorescence emission spectrum analysis; assay type: ADME, cell-free; conditions: cattle
Albumin [14] = biological target: T1, Albumin; experiment: Binding affinity to bovine serum albumin assessed as Stern-Volmer quenching constant at 318K by fluorescence emission spectrum analysis; assay type: ADME, cell-free; conditions: cattle
Albumin [15] = biological target: T1, Albumin; experiment: Binding affinity to bovine serum albumin assessed as quenching constant at 298K by fluorescence emission spectrum analysis; assay type: ADME, cell-free; conditions: cattle
Albumin [16] = biological target: T1, Albumin; experiment: Binding affinity to bovine serum albumin assessed as quenching constant at 308K by fluorescence emission spectrum analysis; assay type: ADME, cell-free; conditions: cattle
Albumin [17] = biological target: T1, Albumin; experiment: Binding affinity to bovine serum albumin assessed as binding constant at 298K by fluorescence emission spectrum analysis; assay type: ADME, cell-free; conditions: cattle
Albumin [18] = biological target: T1, Albumin; experiment: Binding affinity to bovine serum albumin assessed as binding constant at 308K by fluorescence emission spectrum analysis; assay type: ADME, cell-free; conditions: cattle
Albumin [19] = biological target: T1, Albumin; experiment: Binding affinity to bovine serum albumin assessed as binding constant at 318K by fluorescence emission spectrum analysis; assay type: ADME, cell-free; conditions: cattle
Albumin [20] = biological target: T1, Albumin; experiment: Binding affinity to bovine serum albumin assessed as hydrogen bonding interaction by measuring change in enthalpy at 298K by thermodynamic based analysis; assay type: ADME, cell-free; conditions: cattle
Albumin [21] = biological target: T1, Albumin; experiment: Binding affinity to bovine serum albumin assessed as hydrophobic interaction by measuring change in entropy at 298K by thermodynamic based analysis; assay type: ADME, cell-free; conditions: cattle
Albumin [22] = biological target: T1, Albumin; experiment: Binding affinity to bovine serum albumin assessed as spontaneous interaction by measuring change in gibbs free energy at 308K by thermodynamic based analysis; assay type: ADME, cell-free; conditions: cattle
Albumin [23] = biological target: T1, Albumin; experiment: Binding affinity to bovine serum albumin assessed as spontaneous interaction by measuring change in gibbs free energy at 318K by thermodynamic based analysis; assay type: ADME, cell-free; conditions: cattle
Albumin [24] = biological target: T2, Albumin (Homo sapiens, UniProt P02768); experiment: Binding affinity to human serum albumin assessed as increase in peak absorption intensity at 280 nm at 0-7 uM by UV-Vis absorption spectroscopy; assay type: ADME, cell-free; conditions: 0.28 µM
Albumin [25] = biological target: T2, Albumin; experiment: Binding affinity to human serum albumin assessed as binding constant by fluorescence emission spectroscopy; assay type: ADME, cell-free

T1 sequence (P02769 whole entry): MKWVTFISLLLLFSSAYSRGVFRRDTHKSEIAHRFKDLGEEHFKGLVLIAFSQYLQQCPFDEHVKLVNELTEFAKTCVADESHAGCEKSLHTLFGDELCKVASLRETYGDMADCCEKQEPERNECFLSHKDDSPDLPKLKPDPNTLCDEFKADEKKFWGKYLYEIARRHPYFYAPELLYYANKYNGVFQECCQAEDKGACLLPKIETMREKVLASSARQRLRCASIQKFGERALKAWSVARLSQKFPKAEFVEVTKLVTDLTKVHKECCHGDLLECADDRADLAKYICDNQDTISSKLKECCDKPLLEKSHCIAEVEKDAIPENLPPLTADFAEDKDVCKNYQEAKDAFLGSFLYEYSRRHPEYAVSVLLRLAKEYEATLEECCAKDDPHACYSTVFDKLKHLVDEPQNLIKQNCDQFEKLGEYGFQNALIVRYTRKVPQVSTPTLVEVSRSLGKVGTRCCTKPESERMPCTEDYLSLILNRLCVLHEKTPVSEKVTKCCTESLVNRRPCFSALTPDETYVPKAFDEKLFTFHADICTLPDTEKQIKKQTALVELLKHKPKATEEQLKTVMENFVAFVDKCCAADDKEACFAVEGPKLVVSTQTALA
T2 sequence (P02768 whole entry): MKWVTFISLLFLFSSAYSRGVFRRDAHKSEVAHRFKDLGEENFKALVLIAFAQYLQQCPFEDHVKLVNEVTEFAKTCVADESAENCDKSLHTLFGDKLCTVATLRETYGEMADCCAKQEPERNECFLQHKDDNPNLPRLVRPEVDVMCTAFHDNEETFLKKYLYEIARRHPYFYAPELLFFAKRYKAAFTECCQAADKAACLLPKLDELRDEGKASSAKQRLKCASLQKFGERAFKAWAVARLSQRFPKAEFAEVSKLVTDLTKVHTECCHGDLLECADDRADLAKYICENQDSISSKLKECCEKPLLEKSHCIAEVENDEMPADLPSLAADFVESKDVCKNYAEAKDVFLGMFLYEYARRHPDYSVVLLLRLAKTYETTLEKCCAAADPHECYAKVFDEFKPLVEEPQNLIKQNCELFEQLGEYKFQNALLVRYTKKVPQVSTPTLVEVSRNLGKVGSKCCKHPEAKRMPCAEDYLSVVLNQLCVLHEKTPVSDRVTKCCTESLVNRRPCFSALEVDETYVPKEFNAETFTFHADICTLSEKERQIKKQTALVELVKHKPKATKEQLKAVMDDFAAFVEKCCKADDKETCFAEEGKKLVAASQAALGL

O=C1NC(=O)/C(=C/c2ccc(-c3nc4c5ccccc5c5ccccc5c4[nH]3)cc2)S1
inhibition of growth at 10 µM (HL-60(TB)): 57.7%
inhibition of growth at 10 µM (K562): 68.1%
inhibition of growth at 10 µM (EKVX): 11.5%
inhibition of growth at 10 µM (COLO 205): < 10%
inhibition of growth at 10 µM (HT-29): 24%
inhibition of growth at 10 µM (KM12): 43.9%
inhibition of growth at 10 µM (SF-268): 12.3%
inhibition of growth at 10 µM (U-251): 30.3%
inhibition of growth at 10 µM (M14): 47.9%
inhibition of growth at 10 µM (MDA-MB-435): 67.4%
inhibition of growth at 10 µM (OVCAR-3): 21.3%
inhibition of growth at 10 µM (OVCAR-4): < 10%
inhibition of growth at 10 µM (786-0): 48%
inhibition of growth at 10 µM (ACHN): 33.4%
inhibition of growth at 10 µM (MDA-MB-231): 15.6%
inhibition of growth at 10 µM (BT-549): 63.7%
inhibition of growth at 10 µM (MDA-MB-468): 51.7%
Activity (A549 [1]): 75%
Activity (A549 [2]): 42%
Activity (HEK293): 9%
ΔTm (Calf thymus DNA [3]): 7.1 °C
KSV (Calf thymus DNA [4]): 6.53 10^4/M
Kq (Calf thymus DNA [5]): 6.53 10^12/M/s
Kb (Calf thymus DNA [6]): 1 10^5/M
Activity (Calf thymus DNA [7]): Active
Activity (Calf thymus DNA [8]): Active
Activity (DNA): Active
Activity (Albumin [9]): Active
Activity (Albumin [10]): Active
Activity (Albumin [11]): Active
KSV (Albumin [12]): 8.42 10^5/M
KSV (Albumin [13]): 8.15 10^5/M
KSV (Albumin [14]): 3.51 10^5/M
Kq (Albumin [15]): 8.42 10^13/M/sec
Kq (Albumin [16]): 8.15 10^13/M/sec
Kb (Albumin [17]): 4.06 10^6/M
Kb (Albumin [18]): 3.56 10^6/M
Kb (Albumin [19]): 2.97 10^6/M
deltaH (Albumin [20]): -2.92 kcal/mol
deltaS (Albumin [21]): 20.43 cal/mol.K
deltaG (Albumin [22]): -9.21 kcal/mol
deltaG (Albumin [23]): -9.41 kcal/mol
Activity (Albumin [24]): Active
Kb (Albumin [25]): 7.29 10^6/M
